Measured values: ChEMBL document CHEMBL1201862, “PubChem BioAssay data set” (2004)
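Growth conditions: 96-well plates. Treatment: test compound, 48 hours, 5 concentrations. Analysis: linear interpolation between bracketing concentrations; unreached endpoints set to highest concentration. GI50 = concentration required for 50% inhibition of growth.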 Activity calls are given as the source filed them. Rule as the data show it: active = GI50 up to about 1.1 µM and inactive = higher.

What was measured:
Test in all cases: DTP human tumour cell line panel, 48 h
KM12 = tested on: KM12
UACC-257 = tested on: UACC-257
MCF7 = tested on: MCF7
NCI/ADR-RES = tested on: NCI/ADR-RES
EKVX = tested on: EKVX
HOP-92 = tested on: HOP-92
MDA-MB-435 = tested on: MDA-MB-435
UO-31 = tested on: UO-31
NCI-H460 = tested on: NCI-H460
SW-620 = tested on: SW-620
UACC-62 = tested on: UACC-62
ACHN = tested on: ACHN
786-0 = tested on: 786-0
MDA-MB-231 = tested on: MDA-MB-231
SNB-19 = tested on: SNB-19
U-251 = tested on: U-251
NCI-H522 = tested on: NCI-H522
OVCAR-5 = tested on: OVCAR-5
HL-60 = tested on: HL-60
SR = tested on: SR

Measured: GI50

CC(=O)c1c(C)n(C)c2c1nnc1ccccc12
inactive: KM12 47.6 µM | UACC-257 > 100 µM | MCF7 26.5 µM | NCI/ADR-RES 46.5 µM | EKVX 12.8 µM | HOP-92 43.9 µM | MDA-MB-435 61.7 µM | UO-31 3.15 µM | NCI-H460 25.7 µM | SW-620 44.5 µM | UACC-62 23.1 µM | ACHN 34.4 µM | 786-0 36 µM | MDA-MB-231 59 µM | SNB-19 55.5 µM | U-251 49.4 µM | NCI-H522 > 100 µM

CCOP(=O)(OCC)c1cc(-c2ccccc2)ccc1N
inactive: KM12 > 100 µM | UACC-257 > 100 µM | OVCAR-5 > 100 µM | MCF7 > 100 µM | NCI/ADR-RES > 100 µM | EKVX 41.5 µM | HOP-92 34.6 µM | MDA-MB-435 > 100 µM | UO-31 > 100 µM | NCI-H460 > 100 µM | SW-620 > 100 µM | UACC-62 > 100 µM | ACHN > 100 µM | 786-0 > 100 µM | MDA-MB-231 > 100 µM | SNB-19 > 100 µM | U-251 > 100 µM | NCI-H522 61.8 µM

CC1OC(OC2C(OC(=O)[C@@H]3CC(C)(C)C[C@@H]4C5=CC[C@@H]6[C@@]7(C)C[C@H](O)[C@H](OC8OC(CO)C(O)C(O)C8O)[C@@](C)(CO)C7[C@H](O)C[C@@]6(C)[C@]5(C)C[C@@H](O)[C@H]43)OCC(O)C2O)C(O)C(O)C1O (stereo partly drawn)
inactive: KM12 > 15 µM | UACC-257 > 15 µM | OVCAR-5 7.96 µM | MCF7 > 15 µM | NCI/ADR-RES > 15 µM | EKVX 9.73 µM | HL-60 > 15 µM | HOP-92 > 15 µM | MDA-MB-435 > 15 µM | UO-31 6.49 µM | NCI-H460 > 15 µM | SW-620 > 15 µM | UACC-62 > 15 µM | ACHN > 15 µM | 786-0 > 15 µM | MDA-MB-231 > 15 µM | SNB-19 > 15 µM | U-251 > 15 µM | NCI-H522 6.12 µM

Cc1cccc(C)c1NC(=O)C(C#N)C1=C(Cl)C(=O)c2ccccc2C1=O (stereo not drawn)
inactive: KM12 16.8 µM | UACC-257 13.9 µM | OVCAR-5 19.3 µM | MCF7 20 µM | EKVX 21.4 µM | HL-60 5.53 µM | HOP-92 10.2 µM | MDA-MB-435 17.2 µM | UO-31 13.6 µM | NCI-H460 22.1 µM | SW-620 11.9 µM | UACC-62 16.1 µM | SR 2.31 µM | ACHN 15.2 µM | 786-0 22 µM | MDA-MB-231 18.6 µM | SNB-19 16 µM | U-251 18.1 µM | NCI-H522 10.5 µM

N#Cc1[nH]c(=O)n(-c2ccc([N+](=O)[O-])cc2)c1N
inactive: UACC-257 > 10 µM | OVCAR-5 > 10 µM | NCI/ADR-RES > 10 µM | EKVX > 10 µM | HL-60 > 10 µM | HOP-92 > 10 µM | MDA-MB-435 > 10 µM | UO-31 > 10 µM | NCI-H460 7.64 µM | SW-620 > 10 µM | UACC-62 > 10 µM | SR > 10 µM | ACHN > 10 µM | 786-0 > 10 µM | MDA-MB-231 > 10 µM | SNB-19 > 10 µM | U-251 > 10 µM | NCI-H522 > 10 µM

CCOC(=O)C1=COC(C)(CCc2ccccc2)CC1=O (stereo not drawn)
inactive: KM12 56.2 µM | UACC-257 > 100 µM | OVCAR-5 > 100 µM | MCF7 44 µM | NCI/ADR-RES > 100 µM | EKVX > 100 µM | MDA-MB-435 51.8 µM | UO-31 91.2 µM | NCI-H460 92.5 µM | SW-620 > 100 µM | UACC-62 55.7 µM | ACHN > 100 µM | 786-0 > 100 µM | MDA-MB-231 82.6 µM | SNB-19 56.2 µM | U-251 41.3 µM | NCI-H522 24.7 µM

O=[N+]([O-])c1cc(Cl)ccc1S(=O)(=O)N1CCCc2cc(Cl)ccc21
inactive: KM12 51.9 µM | UACC-257 7.08 µM | OVCAR-5 > 100 µM | MCF7 45.8 µM | NCI/ADR-RES 25.5 µM | EKVX > 100 µM | HL-60 > 10 µM | HOP-92 30.8 µM | MDA-MB-435 17.8 µM | UO-31 46.2 µM | NCI-H460 30.5 µM | SW-620 > 100 µM | UACC-62 19.7 µM | ACHN > 100 µM | 786-0 > 100 µM | MDA-MB-231 > 100 µM | SNB-19 > 100 µM

CC1=NN(c2nc(N)nc(C/C(N)=N/O)n2)C(C)(C)C1
inactive: KM12 > 100 µM | UACC-257 > 100 µM | OVCAR-5 > 100 µM | MCF7 > 100 µM | NCI/ADR-RES > 100 µM | EKVX > 100 µM | HL-60 > 100 µM | HOP-92 > 100 µM | MDA-MB-435 > 100 µM | UO-31 > 100 µM | NCI-H460 > 100 µM | SW-620 > 100 µM | UACC-62 > 100 µM | ACHN > 100 µM | 786-0 > 100 µM | MDA-MB-231 > 100 µM | SNB-19 > 100 µM | U-251 > 100 µM | NCI-H522 > 100 µM

CNC(=O)C(C)C1C(=O)/C(=C(O)/C=C\C(C)=C\C(C)C2OC3(C)OC(C=CC34CO4)C2C)C(=O)N1C1CCC(O)C(C)O1 (stereo not drawn)
inactive: KM12 > 100 µM | UACC-257 > 100 µM | OVCAR-5 > 100 µM | MCF7 > 100 µM | NCI/ADR-RES > 100 µM | EKVX > 100 µM | MDA-MB-435 > 100 µM | UO-31 > 100 µM | NCI-H460 > 100 µM | SW-620 > 100 µM | UACC-62 > 100 µM | SR > 100 µM | ACHN > 100 µM | 786-0 > 100 µM | MDA-MB-231 > 100 µM | SNB-19 > 100 µM | U-251 > 100 µM

C/C=C(/CBr)CCC(Br)C(C)(C)Cl.C/C=C(\CBr)CCC(Br)C(C)(C)Cl (stereo not drawn)
inactive: KM12 > 10 µM | UACC-257 > 10 µM | OVCAR-5 > 10 µM | MCF7 > 10 µM | NCI/ADR-RES > 10 µM | EKVX > 10 µM | HOP-92 > 10 µM | MDA-MB-435 > 10 µM | UO-31 > 10 µM | NCI-H460 > 10 µM | SW-620 > 10 µM | ACHN > 10 µM | 786-0 > 10 µM | MDA-MB-231 > 10 µM | SNB-19 > 10 µM | U-251 > 10 µM | NCI-H522 > 10 µM

O=C1O/C(=C(\Br)c2ccc([N+](=O)[O-])cc2)c2ccccc21
inactive: KM12 > 100 µM | UACC-257 > 74.8 µM | OVCAR-5 > 100 µM | MCF7 48.5 µM | NCI/ADR-RES > 100 µM | EKVX > 100 µM | HL-60 36.1 µM | HOP-92 > 100 µM | MDA-MB-435 62.7 µM | UO-31 62.8 µM | NCI-H460 > 100 µM | SW-620 > 64.3 µM | UACC-62 58.5 µM | SR 28.8 µM | ACHN > 100 µM | 786-0 > 54.6 µM | SNB-19 > 100 µM | U-251 73.3 µM | NCI-H522 38.5 µM

O=C(/C=C/c1ccccc1F)c1ccc(Cl)c(Cl)c1
inactive: KM12 19.9 µM | UACC-257 49.4 µM | OVCAR-5 > 87.1 µM | EKVX > 100 µM | HL-60 18.9 µM | HOP-92 > 100 µM | UO-31 40.9 µM | NCI-H460 > 71.1 µM | SW-620 29.3 µM | UACC-62 52.8 µM | SR 33.3 µM | ACHN > 88.1 µM | 786-0 17.3 µM | SNB-19 > 58.6 µM | U-251 > 10 µM | NCI-H522 23.2 µM

Clc1ccc(OCc2nnc(CCCCCCCCc3nnc(COc4ccc(Cl)cc4Cl)o3)o2)c(Cl)c1
inactive: KM12 95.1 µM | UACC-257 > 100 µM | OVCAR-5 > 100 µM | MCF7 42.3 µM | NCI/ADR-RES 76.6 µM | EKVX > 100 µM | HOP-92 41.1 µM | MDA-MB-435 > 100 µM | UO-31 44.1 µM | NCI-H460 79.6 µM | SW-620 > 100 µM | UACC-62 > 100 µM | ACHN > 100 µM | 786-0 47.1 µM | MDA-MB-231 > 100 µM | SNB-19 69.3 µM | U-251 > 100 µM | NCI-H522 18.7 µM

O=c1n(CCCN2CCOCC2)nc2n1-c1ccc3ccccc3c1SC2
inactive: KM12 47.3 µM | UACC-257 29.8 µM | OVCAR-5 66.7 µM | MCF7 76.7 µM | NCI/ADR-RES 67.5 µM | EKVX 89.7 µM | HL-60 31.1 µM | HOP-92 > 100 µM | MDA-MB-435 49 µM | UO-31 20.6 µM | NCI-H460 30.2 µM | SW-620 37.5 µM | UACC-62 21.4 µM | SR 71.6 µM | 786-0 16 µM | SNB-19 52.6 µM | U-251 57.9 µM | NCI-H522 22.3 µM

CC1CCC2C(C(=O)O[C@H]3C4C=CO[C@@H](OC5OC(CO)C(O)C(O)C5O)C4[C@@]4(CO)O[C@@H]34)=CO[C@@H](OC3OC(CO)C(O)C(O)C3O)C12 (stereo partly drawn)
inactive: KM12 > 10 µM | UACC-257 > 10 µM | OVCAR-5 > 10 µM | MCF7 > 10 µM | NCI/ADR-RES > 10 µM | EKVX > 10 µM | HL-60 > 10 µM | HOP-92 > 10 µM | MDA-MB-435 > 10 µM | UO-31 > 10 µM | NCI-H460 > 10 µM | SW-620 > 10 µM | UACC-62 > 10 µM | ACHN > 10 µM | 786-0 > 10 µM | MDA-MB-231 > 10 µM | SNB-19 > 10 µM | U-251 > 10 µM | NCI-H522 > 10 µM
